In ChEMBL document CHEMBL2010730, “An example of designed multiple ligands spanning protein classes: dual MCH-1R antagonists/DPPIV inhibitors” (Bioorg Med Chem Lett, 2012):
pIC50, pKi: −log10 of the molar value.

Columns and labels:
[1] = target: T1, Melanin-concentrating hormone receptor 1 (Homo sapiens, UniProt Q99705); test: Antagonist activity at human MCH1R expressed in CHO cells assessed as inhibition of MCH-induced response at 5 uM; format: functional, cell-based
[2] = target: T1, Melanin-concentrating hormone receptor 1; test: Antagonist activity at human MCH1R expressed in CHO cells assessed as inhibition of MCH-induced response; format: functional, cell-based
Dipeptidyl peptidase 4 [3] = target: T2, Dipeptidyl peptidase 4 (Homo sapiens, UniProt P27487); test: Inhibition of DPP4
T2 sequence (P27487 whole entry): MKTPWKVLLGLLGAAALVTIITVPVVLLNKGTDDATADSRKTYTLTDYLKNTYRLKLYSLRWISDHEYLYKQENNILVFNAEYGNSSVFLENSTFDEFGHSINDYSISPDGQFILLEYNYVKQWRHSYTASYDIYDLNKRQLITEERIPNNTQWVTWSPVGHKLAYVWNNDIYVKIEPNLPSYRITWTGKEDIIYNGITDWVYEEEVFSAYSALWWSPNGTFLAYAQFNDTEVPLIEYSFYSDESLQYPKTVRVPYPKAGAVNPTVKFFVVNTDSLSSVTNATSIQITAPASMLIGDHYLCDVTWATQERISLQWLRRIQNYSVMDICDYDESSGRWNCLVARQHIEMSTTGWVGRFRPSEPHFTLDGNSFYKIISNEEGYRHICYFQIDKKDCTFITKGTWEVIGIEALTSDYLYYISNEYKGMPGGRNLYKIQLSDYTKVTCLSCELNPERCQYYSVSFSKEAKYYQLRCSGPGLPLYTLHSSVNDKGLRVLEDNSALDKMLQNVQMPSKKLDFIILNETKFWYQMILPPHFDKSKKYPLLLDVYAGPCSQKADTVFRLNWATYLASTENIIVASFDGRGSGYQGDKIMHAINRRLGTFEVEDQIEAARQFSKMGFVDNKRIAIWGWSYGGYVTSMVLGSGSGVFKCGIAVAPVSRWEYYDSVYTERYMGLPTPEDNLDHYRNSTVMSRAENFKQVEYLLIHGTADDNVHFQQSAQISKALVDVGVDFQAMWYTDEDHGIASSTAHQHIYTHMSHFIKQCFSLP

Dipeptidyl peptidase 9 = Dipeptidyl peptidase 9 (Homo sapiens, UniProt Q86TI2); test: Inhibition of DPP9
Dipeptidyl peptidase 9, sequence (Q86TI2 whole entry): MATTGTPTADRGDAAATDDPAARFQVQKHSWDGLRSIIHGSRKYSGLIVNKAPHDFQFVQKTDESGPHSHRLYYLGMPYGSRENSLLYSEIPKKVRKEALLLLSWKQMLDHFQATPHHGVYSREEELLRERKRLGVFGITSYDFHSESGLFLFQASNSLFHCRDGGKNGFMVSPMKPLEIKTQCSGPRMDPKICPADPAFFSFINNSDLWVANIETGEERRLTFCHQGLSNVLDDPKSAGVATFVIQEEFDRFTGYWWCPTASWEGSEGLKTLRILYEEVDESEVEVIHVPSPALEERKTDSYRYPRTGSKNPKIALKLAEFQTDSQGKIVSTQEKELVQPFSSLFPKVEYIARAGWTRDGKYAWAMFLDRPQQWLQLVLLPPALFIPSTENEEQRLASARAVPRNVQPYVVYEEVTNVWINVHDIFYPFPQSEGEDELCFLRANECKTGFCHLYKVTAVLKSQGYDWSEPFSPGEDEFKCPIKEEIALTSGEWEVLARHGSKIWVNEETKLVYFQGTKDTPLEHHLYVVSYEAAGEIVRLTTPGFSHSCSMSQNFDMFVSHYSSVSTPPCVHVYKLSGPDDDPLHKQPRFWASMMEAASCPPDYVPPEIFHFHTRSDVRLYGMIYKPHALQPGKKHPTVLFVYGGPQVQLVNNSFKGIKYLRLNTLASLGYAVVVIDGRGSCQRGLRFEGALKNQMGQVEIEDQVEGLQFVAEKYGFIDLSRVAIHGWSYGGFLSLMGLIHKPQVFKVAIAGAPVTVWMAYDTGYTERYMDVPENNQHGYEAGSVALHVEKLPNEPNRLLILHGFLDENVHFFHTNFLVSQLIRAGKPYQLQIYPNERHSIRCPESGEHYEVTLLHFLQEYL

Dipeptidyl peptidase 4 [4] = target: T2, Dipeptidyl peptidase 4; test: Inhibition of human recombinant DPP4 using H-Gly-Pro-7-amino-4-methylcoumarin as substrate assessed as inhibition of 7-amino-4-methylcoumarin formation after 30 mins by fluorimetry
Dipeptidyl peptidase 8 = Dipeptidyl peptidase 8 (Homo sapiens, UniProt Q6V1X1); test: Inhibition of DPP8
Dipeptidyl peptidase 8, sequence (Q6V1X1 whole entry): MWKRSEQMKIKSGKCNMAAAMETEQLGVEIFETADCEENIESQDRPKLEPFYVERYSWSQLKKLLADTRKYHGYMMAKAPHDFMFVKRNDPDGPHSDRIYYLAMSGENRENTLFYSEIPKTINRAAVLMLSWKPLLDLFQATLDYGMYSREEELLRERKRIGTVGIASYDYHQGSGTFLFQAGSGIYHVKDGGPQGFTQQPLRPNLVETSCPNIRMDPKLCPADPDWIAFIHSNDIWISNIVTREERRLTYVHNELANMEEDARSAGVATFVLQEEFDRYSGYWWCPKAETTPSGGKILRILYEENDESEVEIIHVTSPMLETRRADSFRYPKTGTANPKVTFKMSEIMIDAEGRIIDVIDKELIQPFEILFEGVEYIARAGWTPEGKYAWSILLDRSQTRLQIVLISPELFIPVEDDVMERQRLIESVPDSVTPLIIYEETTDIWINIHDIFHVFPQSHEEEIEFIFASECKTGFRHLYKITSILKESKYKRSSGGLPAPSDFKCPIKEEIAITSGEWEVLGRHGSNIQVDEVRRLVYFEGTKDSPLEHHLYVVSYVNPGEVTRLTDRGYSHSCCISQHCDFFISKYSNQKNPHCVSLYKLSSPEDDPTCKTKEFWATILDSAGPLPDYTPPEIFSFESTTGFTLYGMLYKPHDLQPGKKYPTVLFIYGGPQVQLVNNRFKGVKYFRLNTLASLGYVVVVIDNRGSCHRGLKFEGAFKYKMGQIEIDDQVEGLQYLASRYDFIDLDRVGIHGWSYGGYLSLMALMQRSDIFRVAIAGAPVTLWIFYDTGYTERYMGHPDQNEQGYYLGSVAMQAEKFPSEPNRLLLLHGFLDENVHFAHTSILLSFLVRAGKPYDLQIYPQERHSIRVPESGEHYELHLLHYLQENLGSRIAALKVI

[5] = Lipophilicity, log D of the compound at pH 7.4; format: physicochemical; settings: buffer
[6] = target: Voltage-gated inwardly rectifying potassium channel KCNH2 (Homo sapiens, UniProt Q12809)
Voltage-gated inwardly rectifying potassium channel KCNH2, sequence (Q12809 whole entry): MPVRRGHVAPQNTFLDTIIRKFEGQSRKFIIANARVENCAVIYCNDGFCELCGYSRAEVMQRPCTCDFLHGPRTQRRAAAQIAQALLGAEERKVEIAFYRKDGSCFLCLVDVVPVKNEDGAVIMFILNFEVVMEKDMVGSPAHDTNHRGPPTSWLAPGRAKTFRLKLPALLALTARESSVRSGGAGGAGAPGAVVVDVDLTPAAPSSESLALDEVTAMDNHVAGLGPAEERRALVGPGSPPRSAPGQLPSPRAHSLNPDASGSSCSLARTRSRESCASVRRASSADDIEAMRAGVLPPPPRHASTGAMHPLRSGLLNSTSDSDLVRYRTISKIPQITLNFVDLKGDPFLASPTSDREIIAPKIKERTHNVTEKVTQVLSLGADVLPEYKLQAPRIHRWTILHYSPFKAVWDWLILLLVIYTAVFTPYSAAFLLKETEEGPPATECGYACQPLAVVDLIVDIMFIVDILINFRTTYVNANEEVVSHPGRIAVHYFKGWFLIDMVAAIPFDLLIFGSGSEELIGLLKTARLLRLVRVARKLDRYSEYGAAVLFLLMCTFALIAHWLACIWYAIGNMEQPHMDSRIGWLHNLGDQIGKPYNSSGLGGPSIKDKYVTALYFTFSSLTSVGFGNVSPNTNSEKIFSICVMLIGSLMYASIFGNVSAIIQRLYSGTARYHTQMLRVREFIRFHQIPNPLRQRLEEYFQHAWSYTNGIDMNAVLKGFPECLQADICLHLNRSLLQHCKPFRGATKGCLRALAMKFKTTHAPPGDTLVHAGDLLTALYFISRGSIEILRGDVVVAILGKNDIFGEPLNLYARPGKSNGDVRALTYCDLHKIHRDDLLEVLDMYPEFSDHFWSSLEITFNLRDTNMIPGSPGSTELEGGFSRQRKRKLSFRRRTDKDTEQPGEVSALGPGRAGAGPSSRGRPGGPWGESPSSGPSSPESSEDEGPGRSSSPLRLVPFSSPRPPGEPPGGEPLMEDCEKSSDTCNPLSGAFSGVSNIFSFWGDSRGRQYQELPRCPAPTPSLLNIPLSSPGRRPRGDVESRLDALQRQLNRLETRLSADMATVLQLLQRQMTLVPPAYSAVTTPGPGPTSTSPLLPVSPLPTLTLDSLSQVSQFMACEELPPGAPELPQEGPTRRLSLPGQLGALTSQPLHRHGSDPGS

[7] = target: T1, Melanin-concentrating hormone receptor 1; test: Antagonist activity at human MCH1R expressed in forskolin-stimulated CHO cells assessed as inhibition of MCH-induced cAMP accumulation after 90 mins; format: functional, cell-based

T1 sequence (Q99705 whole entry): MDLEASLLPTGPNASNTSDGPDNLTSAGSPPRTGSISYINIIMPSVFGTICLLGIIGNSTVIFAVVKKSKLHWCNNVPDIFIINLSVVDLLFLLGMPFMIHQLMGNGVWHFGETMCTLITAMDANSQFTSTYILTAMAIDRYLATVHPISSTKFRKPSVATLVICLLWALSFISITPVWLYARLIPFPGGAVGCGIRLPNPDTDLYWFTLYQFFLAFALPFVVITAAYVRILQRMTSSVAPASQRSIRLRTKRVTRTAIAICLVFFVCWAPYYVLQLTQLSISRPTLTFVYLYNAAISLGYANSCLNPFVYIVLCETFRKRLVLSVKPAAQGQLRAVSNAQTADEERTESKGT

Row | SMILES | inhibition [1] | pIC50 [2] | pIC50 (Dipeptidyl peptidase 4 [4]) | further results
1 | N[C@H]1CN(c2ccc(-n3ccc(-c4ccccc4)cc3=O)cn2)C[C@@H]1c1cc(F)ccc1F | 39% | – | – | –
2 | CCCCOc1ccc2c(c1)CCN(c1ccc(N3C[C@H](c4cc(F)ccc4F)[C@@H](N)C3)nc1)C2=O | 44% | 5.40 | – | –
3 | N[C@H]1CN(c2ccc(-n3ccnc(CCCc4ccccc4)c3=O)cn2)C[C@@H]1c1cc(F)ccc1F | 52% | < 5.52 | – | –
4 | N[C@H]1CN(c2cc(-c3ccccc3)ncn2)CC[C@@H]1c1cc(F)c(F)cc1F | – | – | – | pKi (Dipeptidyl peptidase 4 [3]): 8.22
5 | CC(C)COc1ccc(CC(=O)Nc2ccc(N3C[C@H](c4cc(F)ccc4F)[C@@H](N)C3)nc2)cc1 | 35% | – | – | –

More lines, in order of rising pIC50 [2], values ahead:

Row | inhibition [1] | pIC50 [2] | pIC50 (Dipeptidyl peptidase 4 [4]) | SMILES | further results
6 | 43% | 5.42 | – | N[C@H]1CN(c2ccc(CCNC(=O)c3ccc(OCC4CC4)cc3)cn2)C[C@@H]1c1cc(F)ccc1F | –
7 | – | 6.36 | 6.46 | N[C@H]1CN(c2ccc(-n3ccc(OCc4ccccc4)cc3=O)cn2)CC[C@@H]1c1cc(F)c(F)cc1F | pIC50 (Dipeptidyl peptidase 9): < 4.30; pIC50 (Dipeptidyl peptidase 8): < 4.30
8 | 104% | 6.85 | 5.78 | N[C@H]1CN(c2ccc(-n3ccc(OCc4ccccc4)cc3=O)cn2)C[C@@H]1c1cc(F)ccc1F | –
9 | – | 6.96 | 5.96 | N[C@H]1CN(c2ccc(-n3ccc(OCc4ccccc4)cc3=O)cn2)C[C@@H]1c1cc(F)c(F)cc1F | logD [5]: 3.4; pIC50 [6]: 5.21
10 | – | 7.70 | < 4.00 | N[C@@H]1CCN(c2ccc(-n3ccc(OCc4ccccc4)cc3=O)cn2)C1 | pIC50 (Dipeptidyl peptidase 9): < 4.00; pKi [7]: 8.22; pIC50 (Dipeptidyl peptidase 8): < 4.00
